From patent US4309559A, “Sulphonamides useful as pesticides” (FBC Limited, priority 1977, dated 1982)

Legend:
Assay type in all cases: in vivo
Maize (Zea mays) = experiment: Soil incorporation (attaclay/sand dust), growth regulatory or herbicidal effects, maize; details: 504 h, soil incorporation 26 ppm, 21 days, 0=no effect, 100=complete kill, read-out: growth regulatory or herbicidal effect score
From the text: (§1) The compounds listed below were each formulated as an attaclay/sand dust and incorporated into John Innes I potting compost at a rate equivalent to 26 parts per million weight/volume of active ingredient to soil and placed in anodised aluminium pans, 19 cm long×9.5 cm wide×5.0 cm deep. This rate is approximately equivalent to a soil surface application of 11.2 kg active ingredient/hectare cultivated to a depth of 5 cm. Seeds of the species listed below were sown in the treated soil, watered and placed in a controlled environment room (22° C.; 65-85% relative humidity; 14 hours per day artificial illumination at 13,000 lux) for 21 days. The plants were then visually assessed for any growth regulatory or herbicidal effects. All differences from an untreated control were scored on a scale from 0-100, where 0 signifies no effect and 100 signifies complete kill.
(§2) The compounds listed below were tested according to the procedure of Examples 56-60 but at 130 parts per million weight/volume of active ingredient to soil. This rate is approximately equivalent to a soil surface application of 56 kg active ingredient per hectare cultivated to a depth of 5 cm.
(§3) The product of Example 95 was tested according to the procedure of Examples 56-60 but at 130 and 26 parts per million weight/volume. The results were as follows:
(§4) N-(2-oxopropyl)-2'-chloro-6'-methyl-methanesulphonanilide, formulated as an attaclay/sand dust, was incorporated in John Innes I potting compost at a rate equivalent to 130 parts per million weight/volume of active ingredient to soil and placed in anodised aluminium pans, 19 cm long×9.5 cm wide×5.0 cm deep. These rates are approximately equivalent to a soil surface application of 56 kg active ingredient per hectare cultivated to a depth of 5 cm. Seeds of Peas, Mustard, Linseed, Maize, Oats and Ryegrass were sown in the treated soil, watered and placed in a controlled environment room (22° C.; 65-85% relative humidity; 14 hours artificial illumination at 13000 lux) for 21 days.
(§5) The plants were then visually assessed for any growth regulatory or herbicidal effects. All differences from an untreated control were scored on a scale from 0-100, where 0 signifies no effect and 100 signifies complete suppression.

Mustard (Sinapis alba) [1] = experiment: Post-emergence foliar spray, herbicidal/growth regulant response, mustard; details: 168 h, foliar spray 11.2 kg/ha, 7 days, 0=no effect, 100=complete kill, read-out: herbicidal or growth regulant response index
Experimental: (§6) Seeds of the plant species listed below were sown in anodised aluminium pans, 19 cm long×9.5 cm wide×5 cm deep, containing John Innes I potting compost. They were then watered and placed in a controlled environment room (22° C.; 65-85% relative humidity; 14 hours per day artificial illumination at 13,000 lux). Fourteen days after sowing, the seedlings received a foliar spray of a compound listed below, formulated as a solution in 1:1 by volume aqueous acetone. The concentration of active ingredient and volume of application were adjusted so as to be equivalent to a rate of 11.2 kg/ha in 450 liters per hectare. After seven days growth in the controlled environment room, the plants were visually assessed for any herbicidal or growth regulant response. All differences from the untreated control were scored according to an index where 0=no effect and 100=complete kill.
(§7) The product of Example 95 was tested according to the procedure of Examples 49-55.

[2] = system: Ryegrass (Lolium perenne); experiment: Post-emergence foliar spray, herbicidal/growth regulant response, ryegrass; details: 168 h, foliar spray 11.2 kg/ha, 7 days, 0=no effect, 100=complete kill, read-out: herbicidal or growth regulant response index
Experimental: as §6, §7

[3] = system: Crabgrass (Digitaria sanguinalis); experiment: Pre-emergence soil surface spray, crabgrass; details: soil surface spray 2.8 kg/ha, 21 days, 0=no effect, 100=complete kill
From the text: (§8) Seeds of the plant species listed below were sown in John Innes I potting compost in aluminium pans, 19 cm long×9.5 cm wide×5.0 cm high, one species per pan. The soil surface was then sprayed with a compound listed below, formulated as a solution in 1:1 by volume aqueous acetone except for the compound of Example 44 which was formulated as an aqueous suspension containing 1000 parts per million of the wetting agent Lissapol NX (nonylphenol/ethylene oxide condensate). Each compound was applied at a rate of 2.8 kg of active ingredient per hectare in 450 liters of spray liquid per hectare. The pans were then watered, and placed in a controlled environment room (22° C., relative humidity 65-85%, 14 hours per day artificial illumination at 17,000 lux) for 21 days. The plants were then visually assessed for any growth regulatory or herbicidal effects. All differences from an untreated control were scored on a scale from 0-100, where 0 signifies no effect and 100 signifies complete kill.

[4] = system: Ryegrass (Lolium perenne); experiment: Soil incorporation (attaclay/sand dust), growth regulatory or herbicidal effects, ryegrass; details: 504 h, soil incorporation 26 ppm, 21 days, 0=no effect, 100=complete kill, read-out: growth regulatory or herbicidal effect score
From the text: as §1, §2, §3, §4, §5

Peas (Pisum sativum) [5] = experiment: Soil incorporation (attaclay/sand dust), growth regulatory or herbicidal effects, peas; details: Lathyrus oleraceus, 504 h, soil incorporation 26 ppm, 21 days, 0=no effect, 100=complete kill, read-out: growth regulatory or herbicidal effect score
From the text: as §1, §2, §3, §4, §5

[6] = system: Linseed (Linum usitatissimum); experiment: Post-emergence foliar spray, herbicidal/growth regulant response, linseed; details: 168 h, foliar spray 11.2 kg/ha, 7 days, 0=no effect, 100=complete kill, read-out: herbicidal or growth regulant response index
Experimental: as §6, §7

Oat (Avena sativa) = experiment: Post-emergence foliar spray, herbicidal/growth regulant response, oat; details: 168 h, foliar spray 11.2 kg/ha, 7 days, 0=no effect, 100=complete kill, read-out: herbicidal or growth regulant response index
Experimental: as §6, §7

[7] = system: Barnyardgrass (Echinochloa crus-galli); experiment: Pre-emergence soil surface spray, barnyardgrass; details: soil surface spray 2.8 kg/ha, 21 days, 0=no effect, 100=complete kill
From the text: as §8

[8] = system: Wheat (Triticum aestivum); experiment: Pre-emergence soil surface spray, wheat; details: soil surface spray 2.8 kg/ha, 21 days, 0=no effect, 100=complete kill
From the text: as §8

Mustard (Sinapis alba) [9] = experiment: Soil incorporation (attaclay/sand dust), growth regulatory or herbicidal effects, mustard; details: 504 h, soil incorporation 26 ppm, 21 days, 0=no effect, 100=complete kill, read-out: growth regulatory or herbicidal effect score
From the text: as §1, §2, §3, §4, §5

[10] = system: Sugarbeet (Beta vulgaris); experiment: Post-emergence foliar spray, herbicidal/growth regulant response, sugarbeet; details: 168 h, foliar spray 11.2 kg/ha, 7 days, 0=no effect, 100=complete kill, read-out: herbicidal or growth regulant response index
Experimental: as §6, §7

Oats (Avena sativa) = experiment: Soil incorporation (attaclay/sand dust), growth regulatory or herbicidal effects, oats; details: 504 h, soil incorporation 26 ppm, 21 days, 0=no effect, 100=complete kill, read-out: growth regulatory or herbicidal effect score
From the text: as §1, §2, §3, §4, §5

[11] = system: French beans (Phaseolus vulgaris); experiment: Post-emergence foliar spray, herbicidal/growth regulant response, French beans; details: foliar spray 11.2 kg/ha, 7 days, 0=no effect, 100=complete kill
Experimental: as §6, §7

[12] = system: Linseed (Linum usitatissimum); experiment: Soil incorporation (attaclay/sand dust), growth regulatory or herbicidal effects, linseed; details: 504 h, soil incorporation 26 ppm, 21 days, 0=no effect, 100=complete kill, read-out: growth regulatory or herbicidal effect score
From the text: as §1, §2, §3, §4, §5

Wild Oat (Avena fatua) = experiment: Pre-emergence soil surface spray, wild oat; details: soil surface spray 2.8 kg/ha, 21 days, 0=no effect, 100=complete kill
From the text: as §8

[13] = system: Blackgrass (Alopecurus myosuroides); experiment: Pre-emergence soil surface spray, blackgrass; details: soil surface spray 2.8 kg/ha, 21 days, 0=no effect, 100=complete kill
From the text: as §8

Barley (Hordeum vulgare) = experiment: Pre-emergence soil surface spray, barley; details: soil surface spray 2.8 kg/ha, 21 days, 0=no effect, 100=complete kill
From the text: as §8

Peas (Pisum sativum) [14] = experiment: Post-emergence foliar spray, herbicidal/growth regulant response, peas; details: Lathyrus oleraceus, 168 h, foliar spray 11.2 kg/ha, 7 days, 0=no effect, 100=complete kill, read-out: herbicidal or growth regulant response index
Experimental: as §6, §7

[15] = system: vine downy mildew Plasmopara viticola; experiment: Vine downy mildew control on vine plants (leaf application); details: leaves, 12 days, controls less than 5%
Experimental: Aqueous acetone solutions or suspensions containing 2000 or 500 mg of the compound listed below per liter, together with 125 mg of a wetting agent per liter, were applied to:
(B) the leaves of vine plants having five fully expanded leaves;
The treated plants, together with controls treated with wetting agent alone, were inoculated 24 hours after the chemical application:
in the case of (B) with an aqueous suspension of sporangia of the disease organism vine downy mildew Plasmopara viticola;
in the case of (B) were placed in an atomosphere of 80-100% humidity at 14°-18° C. until the disease incidence was measured twelve days later;

[16] = system: barley powdery mildew Erysiphe graminis; experiment: Barley powdery mildew control on barley plants; details: 2000 ppm; soil and leaves; 10 days; controls less than 5%
[17] = system: cucumber powdery mildew Erysiphe cichoracearum; experiment: Cucumber powdery mildew control on cucumber plants; details: 2000 ppm; soil and leaves; 14 days; controls less than 5%
[18] = system: rice blast Pyricularia oryzae; details: 2000 ppm; soil and leaves; 7 days; controls less than 5%

For CCCS(=O)(=O)N(c1c(C)cccc1C)C(C)C(=O)OC(C)C (stereo not drawn) [Example 3], the plant injury at 26 µg/mL (Maize (Zea mays)) was 20%, the pest or weed control at 11200 g/ha (Mustard (Sinapis alba) [1]) was 90% and the pest or weed control at 11200 g/ha [2] was 15%. For the same compound, the “growth regulatory or herbicidal effect score” value [3] was 90, the pest or weed control at 26 µg/mL [4] was 90% and the pest or weed control at 26 µg/mL (Peas (Pisum sativum) [5]) was 0%. The pest or weed control at 11200 g/ha [6] was 30%, the plant injury at 11200 g/ha (Oat (Avena sativa)) was 5% and the “growth regulatory or herbicidal effect score” value [7] was 60. The “growth regulatory or herbicidal effect score” value [8] was 0, the pest or weed control at 26 µg/mL (Mustard (Sinapis alba) [9]) was 90% and the plant injury at 11200 g/ha [10] was 90%. For the same compound, the plant injury at 26 µg/mL (Oats (Avena sativa)) was 20%, the “herbicidal or growth regulant response index” value [11] was 80 and the pest or weed control at 26 µg/mL [12] was 20%. The “growth regulatory or herbicidal effect score” value (Wild Oat (Avena fatua)) was 80, the “growth regulatory or herbicidal effect score” value [13] was 90 and the “growth regulatory or herbicidal effect score” value (Barley (Hordeum vulgare)) was 0. For the same compound, the pest or weed control at 11200 g/ha (Peas (Pisum sativum) [14]) was 5%.

COC(=O)C(C)N(c1c(C)cccc1C)S(C)(=O)=O (stereo not drawn) [Example 29, N-(1-(methoxycarbonyl)ethyl)-2',6'-dimethyl-methanesulphonanilide] was tested, and the “% Control, vine downy mildew” value ([15]; 500 ppm) was 90% and the “% Control, vine downy mildew” value ([15]; 2000 ppm) was 98%.

With Cc1cccc(C)c1N(C1CCOC1=O)S(C)(=O)=O (stereo not drawn) [Example 123] the “% Control, barley powdery mildew” value [16] was 95% and the “% Control, cucumber powdery mildew” value [17] was 92%.

In the case of CS(=O)(=O)N(CC#N)c1ccc(SC#N)cc1 [Example 141], the “% Control, rice blast” value [18] is reported as 84%.
